Results: patent US4443619A, “Chlorocitric acids” (Hoffmann-La Roche Inc., priority 1981, dated 1984)

Legend:
[1] = Comparative anorectic activity: food consumption in meal-fed rats (acute, Example 13); type: in vivo, Charles River female rats; details: 3 hr meal, mean ± S.E.
Protocol: Charles River female rats (Charles River Breeding Laboratories, Wilmington, Mass.), weighing 150 to 175 g, were individually housed in wire-bottomed cages in a temperature-regulated (22° C.) light-controlled room (12 hr light, 6 a.m. to 6 p.m. and 12 hr dark, 6 p.m. to 6 a.m.). Animals were fasted 48 hr, then meal-fed the 70% glucose diet described by A. C. Sullivan, et al., J. Nutrition, 101, 265 (1971) from 8 to 11 a.m. Following 5 to 13 days alimentation on the meal-feeding regimen, rats were dosed with the appropriate compounds orally by intubation 1/2 hr before the 3 hr meal. Food cups were weighed immediately after the meal. The control group consists of 31 rats while each drug treated group consists of 5 to 12 rats.
The G-70 diet consisted of 70% glucose, 23% vitamin-free casein, 5% Phillips and Hart salt mixture IV, 1% corn oil, 1% complete vitamin mixture, and 40 g/kg cellulose. To ensure complete uniformity, all diets were mixed with a twen-shell dry blender equipped with an itensifier bar (Patterson-Kelly Co., East Stroudsburg, Pa.).

Fatty Acid Synthesis = assay: Fatty acid synthesis in pair-feeding experiments in rats (Example 24); type: in vivo, female rats of the Charles River CD strain
Protocol: Female rats of the Charles River CD strain (Charles River Breeding Laboratories, Wilmington, Mass.) weighing 120-160 g (ca. […] old) were housed individually in wire-bottomed cages in a temperature-regulated (22 C.), light-controlled room (12 hour light 6 A.M.-6 P.M., and dark 6 P.M.-6 A.M.). They had free access to water and were fed a commercial diet (Purina Rodent Chow, Ralston Purina Co., St. Louis, Mo.) ad libitum for at least 1 week prior to the experiment. Animals were fasted 48 hours, then meal-fed a synthetic diet (G-70) daily from 8-11 A.M. for the remainder of the experiment. Food consumption and body weight were measured during the meal-feeding period. […] Food spillage was measured daily.
Each group consisted of 8 to 10 (140 to 160 g) rats. Food intake was monitored for a 3 day period; the animals were dosed immediately before the 3 hr meal. Pair-fed animals were fed the amount of food which the drug treated groups ate on the previous days (days 2 and 3).
Immediately after the 3 hour feeding period, rats were administered intravenously a 0.25 ml saline (pH 7.4 to 7.6) solution with the following composition: 12.3 mg alanine, 5 μCi [^14 C] alanine (specific activity=156 mCi/mmole), 30.6 mg-ketoglutarate (as an amine acceptor for transaminase) and 1 mCi [^3 H] water (specific activity=100 mCi/g). […] [^3 H] Water was employed to determine the total rate of lipogenesis, since tritium is incorporated into fatty acids independent of the source of carbon precursors. Animals were killed by decapitation and blood collected in centrifuge tubes 30 minutes after the radioactive pulse, unless otherwise indicated. The specific radioactivity of the body water of each rat was determined by counting a diluted serum aliquot in 10 ml following cocktail: toluene (2.41), 2-methoxyethanol (1.61), naphthalene (320 g), and BBOT (2,5-bis-2-(5-tert-butylbenzoxazolyl)-thiophene, 16 g). Liver, and small intestine was excised rapidly, weighed, and homogenized in 15 ml H2 O in a Virtis 45 Macro Homogenizer for 15 sec at ca. 30,000 rpm. Duplicate 3 ml aliquots of whole homogenates were saponified, extracted, and the absolute radioactivity (dpm) determined. Liver lipids were extracted totally or separated into fatty acids and cholesterol by anion exchange chromatography. It was determined by anion exchange chromatography that the total lipid extract of liver contained fatty acids (96-97%) and cholesterol (3-4%). Data are expressed as nmoles [^14 C] alanine or μ moles [^3 H] water converted into lipid/g tissue/30 minutes. The nmoles [^14 C] alanine were calculated according to the injected load of alanine, as reported previously by A. C. Sullivan et al., Arch. Biochem. and Biophys., 150, 183 (1972). The μ moles [^3 H] water were determined as described previously by A. C. […]

Stomach Emptying = assay: Effect on stomach emptying ([14C]glucose load) in rats (Example 25); type: in vivo
Protocol: Rats were trained to consume a 3 hr 70% glucose meal from 8 a.m. to 11 a.m. daily. On the experimental day, compounds were administered orally by intubation 30 min before a [^14 C]glucose load was given also by intubation. […] Sixty minutes later the rats were killed by decapitation; blood and stomachs were collected on ice.
Data are expressed as follows: dpm×10^3 per ml of serum and dpm×10^3 per stomach.

[2] = test system: fatty acid and cholesterol syntheses; assay: Inhibition of fatty acid, lipid and cholesterol synthesis (summary statements)
[3] = Anorectic effect in 8 hour meal-fed Zucker rats (Example 17); type: in vivo, lean (Fa/-) and obese (fa/fa)
Protocol: Lean (Fa/-) Zucker rats and obese (fa/fa) Zucker rats of both sexes were individually housed in wire-bottomed cages in a temperature-regulated (22° C.) light-controlled room (12 hr light, 6 a.m. to 6 p.m. and 12 hr dark, 6 p.m. 6 a.m.). The animals were fed a high carbohydrate (70% glucose) diet ad libitum for 13 days, dosed with the indicated compounds by oral intubation for 9 days and allowed to recover for 3 days. The animals were then meal fed from 8 a.m. to 4 p.m. for a period of 5 days, following which they were continued on the same meal schedule for an additional 6 days. During the 6-day period, the animals were administered the indicated compounds by oral intubation at 8 a.m. and 12 p.m. Food cups were weighed immediately after the meal.

[4] = Body weight gain in 8 hour meal-fed Zucker rats (Example 18); type: in vivo, lean (Fa/-) and obese (fa/fa); details: 1.32 mmoles/kg b.i.d. oral, 6 days, mean ± S.E.
Protocol: Lean (Fa/-) Zucker rats and obese (fa/fa) Zucker rats of both sexes were individually housed in wire-bottomed cages in a temperature-regulated (22° C.) light-controlled room (12 hr light, 6 a.m. to 6 p.m. and 12 hr dark, 6 p.m. to 6 a.m.). The animals were fed a high carbohydrate (70% glucose) diet ad libitum for 13 days, dosed with the indicated compounds by oral intubation for 9 days and allowed to recover for 3 days. The animals were then meal fed from 8 a.m. to 4 p.m. for a period of 5 days, following which they were continued on the same meal schedule for an additional 6 days. During the 6-day period, the animals were administered the indicated compounds by oral intubation at 8 a.m. and 12 p.m. Body weight gain during the 6-day period was determined.

[5] = Food intake in dogs, pyramiding oral doses (Examples 26 and 27); type: in vivo, beagle dogs
Protocol: Twelve beagle dogs of both sexes weighing 7.6-12.2 kg were used for this test. The test compounds were contained in gelatin capsules for oral administration to two dogs of each sex. The animals were weighed and food consumption calculated daily excluding weekends throughout the test period. Each animal received 800 grams of diet daily consisting of 400 grams of Wayne pellet dog food mixed with 400 ml distilled water. The animals received pyramiding oral doses of the test compound over the three week period. On Monday and Tuesday of the first week the animals were weighed and food consumption was recorded (control). The animals received 3 mg/kg on Wednesday and 10 mg/kg on Friday of the first week. Doses of 30, 100 and 300 mg/kg were administered on Monday, Wednesday and Friday respectively during the second week. A final dose of 1000 mg/kg was administered on Monday of the third week.
Food intake was determined by the procedure by pyramiding doses described in Example 26.

[6] = 0.33 mmoles/kg oral, 60 min after [14C]glucose load, mean ± S.E.
[7] = test day 20, no dose, (±) one animal, (+) and (-) two animals

## O=C(O)C[C@@](O)(C(=O)O)[C@H](O)C(=O)O [Trisodium (-)-threo-hydroxycitrate, reference compound]
[1]; 0.33 mmoles/kg oral
  Food consumption: 11.5 ± 0.7 g
[1]; 0.66 mmoles/kg oral
  Food consumption: 9.0 ± 0.6 g
[1]; 1.32 mmoles/kg oral
  Food consumption: 9.9 ± 1.0 g
[1]; 2.63 mmoles/kg oral
  Food consumption: 8.9 ± 0.8 g
Fatty Acid Synthesis; 2.63 mmoles/kg, pair-fed control 21.3 ± 2.3
  Fatty Acid Synthesis, 3H2O converted: 14.4 ± 1.6 μmoles ^3 H2 O converted/g liv
Fatty Acid Synthesis; 2.63 mmoles/kg, pair-fed control 714 ± 86
  Fatty Acid Synthesis, [14C]alanine converted: 279 ± 36 nmoles [^14 C]alanine converte
Stomach Emptying; [6]
  Serum, total per ml: 4.5 ± 0.3 dpm × 10^3
  Stomach Contents, total per stomach: 1973 ± 154 dpm × 10^3

## O=C(O)CC(O)(C(=O)O)C(O)C(=O)O (single isomer, unassigned) [hydroxycitric acid, reference compound]
Stomach Emptying; comparable doses
  delay in gastric emptying: delayed gastric emptying
[2]
  metabolic activity on lipid (fatty acid) and cholesterol syntheses: inhibition of fatty acid and cholesterol syntheses

## O=C(O)C[C@@](O)(C(=O)O)[C@@H](Cl)C(=O)O (relative stereo) [(±)-threo-Chlorocitric acid]
[1]; 0.08 mmoles/kg oral
  Food consumption: 6.4 ± 0.6 g
[1]; 0.17 mmoles/kg oral
  Food consumption: 6.8 ± 0.7 g
[1]; 0.33 mmoles/kg oral
  Food consumption: 5.7 ± 0.5 g
[1]; 0.66 mmoles/kg oral
  Food consumption: 3.9 ± 0.3 g
[1]; 1.32 mmoles/kg oral
  Food consumption: 3.1 ± 0.4 g
[1]; 2.63 mmoles/kg oral
  Food consumption: 3.8 ± 0.3 g
[3]; Fa/- lean, 1.32 mmoles/kg oral, treatment day 1
  Daily Food Consumption: 11.6 ± 0.8 g
[3]; Fa/- lean, 1.32 mmoles/kg oral, treatment day 2
  Daily Food Consumption: 7.5 ± 0.8 g
[3]; Fa/- lean, 1.32 mmoles/kg oral, treatment day 3
  Daily Food Consumption: 8.6 ± 1.3 g
[3]; Fa/- lean, 1.32 mmoles/kg oral, treatment day 4
  Daily Food Consumption: 6.9 ± 1.0 g
[3]; Fa/- lean, 1.32 mmoles/kg oral, treatment day 5
  Daily Food Consumption: 6.1 ± 0.7 g
[3]; Fa/- lean, 1.32 mmoles/kg oral, treatment day 6
  Daily Food Consumption: 7.2 ± 1.0 g
[3]; Fa/- lean, 1.32 mmoles/kg, day 0 (pretreatment)
  Daily Food Consumption: 12.3 ± 0.7 g
[3]; fa/fa obese, 1.32 mmoles/kg oral, treatment day 1
  Daily Food Consumption: 13.1 ± 0.9 g
[3]; fa/fa obese, 1.32 mmoles/kg oral, treatment day 2
  Daily Food Consumption: 7.8 ± 0.8 g
[3]; fa/fa obese, 1.32 mmoles/kg oral, treatment day 3
  Daily Food Consumption: 6.6 ± 0.2 g
[3]; fa/fa obese, 1.32 mmoles/kg oral, treatment day 4
  Daily Food Consumption: 5.9 ± 0.8 g
[3]; fa/fa obese, 1.32 mmoles/kg oral, treatment day 5
  Daily Food Consumption: 4.6 ± 1.1 g
[3]; fa/fa obese, 1.32 mmoles/kg oral, treatment day 6
  Daily Food Consumption: 5.3 ± 1.3 g
[3]; fa/fa obese, 1.32 mmoles/kg, day 0 (pretreatment)
  Daily Food Consumption: 14.3 ± 0.8 g
[4]; Fa/- lean
  Body Weight Gain: -22.9 ± 2.9 g
[4]; fa/fa obese
  Body Weight Gain: -27.9 ± 4.6 g
Fatty Acid Synthesis; 1.32 mmoles/kg, pair-fed control 25.6 ± 3.9
  Fatty Acid Synthesis, 3H2O converted: 21.4 ± 1.6 μmoles ^3 H2 O converted/g liv
Fatty Acid Synthesis; 1.32 mmoles/kg, pair-fed control 639 ± 69
  Fatty Acid Synthesis, [14C]alanine converted: 809 ± 67 nmoles [^14 C]alanine converte
[5]; [7]
  Food Consumption, % of control: 167 % of control
  Food consumption: 800 g
[5]; test days -2, -1, before dosing (control period)
  Food consumption: 479 ± 96 g
